# Tests used:
# Format in all cases: in vivo
# [1] = tested on: Ryegrass, Italian (Italian ryegrass, Lolium multiflorum); experiment: Test A postemergence, Ryegrass, Italian; details: Postemergence; for Ryegrass, Italian plant response rating: 500 g ai/ha, visual injury vs untreated controls after approx. 10 days
# Summary of the method: (§1)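 Whole-plant herbicidal screen in pots of loam blended with sand. Sprays used a surfactant-containing, non-phytotoxic solvent vehicle. Timing was preemergence soil-directed at planting or postemergence at the one- to two-leaf stage (2–10 cm).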
# [2] = tested on: corn (Zea mays); experiment: Test A postemergence, corn; details: Postemergence; for Corn plant response rating: 500 g ai/ha, visual injury vs untreated controls after approx. 10 days
# Summary of the method: as §1
# [3] = tested on: barnyardgrass (Echinochloa crus-galli); experiment: Test A postemergence, barnyardgrass; details: Postemergence; for Barnyardgrass plant response rating: 500 g ai/ha, visual injury vs untreated controls after approx. 10 days
# Summary of the method: (§2)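 Greenhouse pot test in a loam–sand blend; compounds delivered in a non-phytotoxic solvent carrying a surfactant, applied either as a directed spray to soil at seeding or over seedlings 2 to 10 cm high with one to two leaves.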
# [4] = tested on: wheat (Triticum aestivum); experiment: Test A postemergence, wheat; details: Postemergence; for Wheat plant response rating: 500 g ai/ha, visual injury vs untreated controls after approx. 10 days
# Summary of the method: as §2
# [5] = tested on: kochia (Bassia scoparia); experiment: Test A preemergence, kochia; details: Preemergence; for Kochia plant response rating: visual injury on 0 to 100 scale (0 no effect, 100 complete control), approximately 10 days; for Plant response rating, Kochia: 0 to 100 scale (0 no effect, 100 complete control)
# Summary of the method: as §1
# [6] = tested on: barnyardgrass (Echinochloa crus-galli); experiment: Test A preemergence, barnyardgrass; details: Preemergence; for Barnyardgrass plant response rating: visual injury on 0 to 100 scale (0 no effect, 100 complete control), approximately 10 days; for Plant response rating, Barnyardgrass: 0 to 100 scale (0 no effect, 100 complete control)
# Summary of the method: as §1
# [7] = tested on: pigweed (Amaranthus retroflexus); experiment: Test A preemergence, pigweed; details: for Pigweed plant response rating: visual injury on 0 to 100 scale (0 no effect, 100 complete control), approximately 10 days; for Plant response rating, Pigweed: 0 to 100 scale (0 no effect, 100 complete control)
# Summary of the method: as §2
# [8] = tested on: galium (catchweed bedstraw, Galium aparine); experiment: Test A postemergence, galium; details: Postemergence; for Galium plant response rating: 500 g ai/ha, visual injury vs untreated controls after approx. 10 days
# Summary of the method: as §2
# [9] = tested on: Foxtail, Giant (giant foxtail, Setaria faberi); experiment: Test A postemergence, Foxtail, Giant; details: Postemergence; for Foxtail, Giant plant response rating: 500 g ai/ha, visual injury vs untreated controls after approx. 10 days
# Summary of the method: as §1
# [10] = tested on: ragweed (common ragweed, Ambrosia artemisiifolia); experiment: Test A postemergence, ragweed; details: Postemergence; for Ragweed plant response rating: 500 g ai/ha, visual injury vs untreated controls after approx. 10 days
# Summary of the method: as §1
# [11] = tested on: Ryegrass, Italian (Italian ryegrass, Lolium multiflorum); experiment: Test A preemergence, Ryegrass, Italian; details: Preemergence; for Ryegrass, Italian plant response rating: visual injury on 0 to 100 scale (0 no effect, 100 complete control), approximately 10 days; for Plant response rating, Ryegrass, Italian: 0 to 100 scale (0 no effect, 100 complete control)
# Summary of the method: as §1
# [12] = tested on: Foxtail, Giant (giant foxtail, Setaria faberi); experiment: Test A preemergence, Foxtail, Giant; details: Preemergence; for Foxtail, Giant plant response rating: visual injury on 0 to 100 scale (0 no effect, 100 complete control), approximately 10 days; for Plant response rating, Foxtail, Giant: 0 to 100 scale (0 no effect, 100 complete control)
# Summary of the method: as §1
# [13] = tested on: kochia (Bassia scoparia); experiment: Test A postemergence, kochia; details: Postemergence; for Kochia plant response rating: 500 g ai/ha, visual injury vs untreated controls after approx. 10 days
# Summary of the method: as §1
# [14] = tested on: blackgrass (Alopecurus myosuroides); experiment: Test A postemergence, blackgrass; details: Postemergence; for Blackgrass plant response rating: 500 g ai/ha, visual injury vs untreated controls after approx. 10 days
# Summary of the method: as §1
# [15] = tested on: pigweed (Amaranthus retroflexus); experiment: Test A postemergence, pigweed; details: Postemergence; for Pigweed plant response rating: 500 g ai/ha, visual injury vs untreated controls after approx. 10 days
# Summary of the method: as §1
# [16] = tested on: ragweed (common ragweed, Ambrosia artemisiifolia); experiment: Test A preemergence, ragweed; details: Preemergence; for Ragweed plant response rating: visual injury on 0 to 100 scale (0 no effect, 100 complete control), approximately 10 days; for Plant response rating, Ragweed: 0 to 100 scale (0 no effect, 100 complete control)
# Summary of the method: as §1
# [17] = 125 g ai/ha, visual injury approx. 10 days, 0 to 100 scale (0 no effect, 100 complete control)
# [18] = 0 to 100 scale (0 no effect, 100 complete control)
# [19] = 125 g ai/ha, 0 to 100 scale (0 no effect, 100 complete control)
# [20] = 125 g ai/ha, visual injury, approx. 10 days
# [21] = 31 g ai/ha, visual injury on 0 to 100 scale (0 no effect, 100 complete control), approx. 10 days
# [22] = 31 g ai/ha, visual injury, approx. 10 days
smiles,measurement,setting,value
COC1(OC)CCN(C(=O)c2cc(NS(=O)(=O)C(F)(F)F)c(C)cc2C)CC1 [Compound 101],"Plant response rating, Ryegrass, Italian",[1]; [17],60
same,"Ryegrass, Italian plant response rating",[1]; [18],70
same,"Plant response rating, Corn",[2]; [17],20
same,Corn plant response rating,[2]; [18],30
same,"Plant response rating, Barnyardgrass",[3]; [17],80
same,Barnyardgrass plant response rating,[3]; [18],90
same,"Plant response rating, Wheat",[4]; [17],0
same,Wheat plant response rating,[4]; [18],60
same,Kochia plant response rating,[5]; 125 g ai/ha,60
same,"Plant response rating, Kochia",[5]; 500 g ai/ha,90
same,Barnyardgrass plant response rating,[6]; 125 g ai/ha,100
same,"Plant response rating, Barnyardgrass",[6]; 500 g ai/ha,100
same,Pigweed plant response rating,[7]; 125 g ai/ha,90
same,"Plant response rating, Pigweed",[7]; 500 g ai/ha,90
same,"Plant response rating, Galium",[8]; [17],80
same,Galium plant response rating,[8]; [18],90
same,"Plant response rating, Foxtail, Giant",[9]; [17],0
same,"Foxtail, Giant plant response rating",[9]; [18],80
same,"Plant response rating, Ragweed",[10]; [17],50
same,Ragweed plant response rating,[10]; [18],70
same,"Ryegrass, Italian plant response rating",[11]; 125 g ai/ha,80
same,"Plant response rating, Ryegrass, Italian",[11]; 500 g ai/ha,100
same,"Foxtail, Giant plant response rating",[12]; 125 g ai/ha,90
same,"Plant response rating, Foxtail, Giant",[12]; 500 g ai/ha,100
same,"Plant response rating, Kochia",[13]; [17],10
same,Kochia plant response rating,[13]; [18],30
same,"Plant response rating, Blackgrass",[14]; [17],20
same,Blackgrass plant response rating,[14]; [18],20
same,"Plant response rating, Pigweed",[15]; [17],70
same,Pigweed plant response rating,[15]; [18],90
same,Ragweed plant response rating,[16]; 125 g ai/ha,60
same,"Plant response rating, Ragweed",[16]; 500 g ai/ha,80
CCC1(CC)CC(c2cc(NS(=O)(=O)C(F)(F)F)c(C)cc2C)=NO1 [Compound 209],"Plant response rating, Ryegrass, Italian",[1]; [19],40
same,"Ryegrass, Italian plant response rating",[1]; [18],90
same,"Plant response rating, Corn",[2]; [19],0
same,Corn plant response rating,[2]; [18],30
same,"Plant response rating, Barnyardgrass",[3]; [19],20
same,Barnyardgrass plant response rating,[3]; [18],70
same,"Plant response rating, Wheat",[4]; [19],0
same,Wheat plant response rating,[4]; [18],0
same,"Plant response rating, Kochia",[5]; [20],0
same,"Plant response rating, Kochia",[5]; 500 g ai/ha,80
same,"Plant response rating, Barnyardgrass",[6]; [20],40
same,"Plant response rating, Barnyardgrass",[6]; 500 g ai/ha,90
same,"Plant response rating, Pigweed",[7]; [20],0
same,"Plant response rating, Pigweed",[7]; 500 g ai/ha,50
same,"Plant response rating, Galium",[8]; [19],70
same,Galium plant response rating,[8]; [18],80
same,"Plant response rating, Foxtail, Giant",[9]; [19],0
same,"Foxtail, Giant plant response rating",[9]; [18],10
same,"Plant response rating, Ragweed",[10]; [19],40
same,Ragweed plant response rating,[10]; [18],60
same,"Plant response rating, Ryegrass, Italian",[11]; [20],50
same,"Plant response rating, Ryegrass, Italian",[11]; 500 g ai/ha,90
same,"Plant response rating, Foxtail, Giant",[12]; [20],20
same,"Plant response rating, Foxtail, Giant",[12]; 500 g ai/ha,70
same,"Plant response rating, Kochia",[13]; [19],20
same,Kochia plant response rating,[13]; [18],40
same,"Plant response rating, Blackgrass",[14]; [19],20
same,Blackgrass plant response rating,[14]; [18],30
same,"Plant response rating, Pigweed",[15]; [19],30
same,Pigweed plant response rating,[15]; [18],50
same,"Plant response rating, Ragweed",[16]; [20],0
same,"Plant response rating, Ragweed",[16]; 500 g ai/ha,60
CSC(=O)N(c1cc(C2=NOC3(CCCC3)C2)c(C)cc1C)S(=O)(=O)C(F)(F)F [Compound 219],"Plant response rating, Ryegrass, Italian",[1]; [19],20
same,"Ryegrass, Italian plant response rating",[1]; [18],50
same,"Plant response rating, Corn",[2]; [19],0
same,Corn plant response rating,[2]; [18],0
same,"Plant response rating, Barnyardgrass",[3]; [19],0
same,Barnyardgrass plant response rating,[3]; [18],70
same,"Plant response rating, Wheat",[4]; [19],0
same,Wheat plant response rating,[4]; [18],0
same,"Plant response rating, Kochia",[5]; [20],20
same,"Plant response rating, Kochia",[5]; 500 g ai/ha,40
same,"Plant response rating, Barnyardgrass",[6]; [20],0
same,"Plant response rating, Barnyardgrass",[6]; 500 g ai/ha,100
same,"Plant response rating, Pigweed",[7]; [20],40
same,"Plant response rating, Pigweed",[7]; 500 g ai/ha,60
same,"Plant response rating, Galium",[8]; [19],50
same,Galium plant response rating,[8]; [18],70
same,"Plant response rating, Foxtail, Giant",[9]; [19],0
same,"Foxtail, Giant plant response rating",[9]; [18],20
same,"Plant response rating, Ragweed",[10]; [19],20
same,Ragweed plant response rating,[10]; [18],50
same,"Plant response rating, Ryegrass, Italian",[11]; [20],50
same,"Plant response rating, Ryegrass, Italian",[11]; 500 g ai/ha,60
same,"Plant response rating, Foxtail, Giant",[12]; [20],50
same,"Plant response rating, Foxtail, Giant",[12]; 500 g ai/ha,90
same,"Plant response rating, Kochia",[13]; [19],30
same,Kochia plant response rating,[13]; [18],60
same,"Plant response rating, Blackgrass",[14]; [19],0
same,Blackgrass plant response rating,[14]; [18],0
same,"Plant response rating, Pigweed",[15]; [19],40
same,Pigweed plant response rating,[15]; [18],70
same,"Plant response rating, Ragweed",[16]; [20],0
same,"Plant response rating, Ragweed",[16]; 500 g ai/ha,0
CCOC1CCCN(C(=O)c2cc(NS(=O)(=O)C(F)(F)F)c(C)cc2C)C1 (centres unmarked) [Compound 154],"Plant response rating, Ryegrass, Italian",[1]; [21],0
same,"Plant response rating, Ryegrass, Italian",[1]; [19],0
same,"Plant response rating, Corn",[2]; [21],0
same,"Plant response rating, Corn",[2]; [19],10
same,"Plant response rating, Barnyardgrass",[3]; [21],30
same,"Plant response rating, Barnyardgrass",[3]; [19],70
same,"Plant response rating, Wheat",[4]; [21],30
same,"Plant response rating, Wheat",[4]; [19],70
same,"Plant response rating, Kochia",[5]; [22],0
same,Kochia plant response rating,[5]; 125 g ai/ha,40
same,"Plant response rating, Barnyardgrass",[6]; [22],0
same,Barnyardgrass plant response rating,[6]; 125 g ai/ha,50
same,"Plant response rating, Pigweed",[7]; [22],20
same,Pigweed plant response rating,[7]; 125 g ai/ha,100
same,"Plant response rating, Galium",[8]; [21],50
same,"Plant response rating, Galium",[8]; [19],80
same,"Plant response rating, Foxtail, Giant",[9]; [21],20
same,"Plant response rating, Foxtail, Giant",[9]; [19],20
same,"Plant response rating, Ragweed",[10]; [21],0
same,"Plant response rating, Ragweed",[10]; [19],20
same,"Plant response rating, Ryegrass, Italian",[11]; [22],20
same,"Ryegrass, Italian plant response rating",[11]; 125 g ai/ha,70
same,"Plant response rating, Foxtail, Giant",[12]; [22],60
same,"Foxtail, Giant plant response rating",[12]; 125 g ai/ha,90
same,"Plant response rating, Kochia",[13]; [21],10
same,"Plant response rating, Kochia",[13]; [19],30
same,"Plant response rating, Blackgrass",[14]; [21],0
same,"Plant response rating, Blackgrass",[14]; [19],20
same,"Plant response rating, Pigweed",[15]; [21],40
same,"Plant response rating, Pigweed",[15]; [19],60
same,"Plant response rating, Ragweed",[16]; [22],50
same,Ragweed plant response rating,[16]; 125 g ai/ha,80

# — patent US20230278972A1, “SUBSTITUTED HALOALKYL SULFONANILIDE HERBICIDES” (FMC Corporation, priority 2020, published 2023)
